Test results reported in ChEMBL document CHEMBL1127881 (Bioorg Med Chem Lett, 1994).
Values belong to the compound of their own block, whether it stands above or below them.

How the values were obtained:
Type in all cases: tissue-based
[1] = target: Muscarinic acetylcholine receptor; test: Compound was tested for its ability to inhibit muscarinic receptor in rat cerebral cortex using [3H]quinuclidinyl benzilate (QNB); Range is 4300-9500
[2] = target: Muscarinic acetylcholine receptor; test: Compound was tested for its ability to inhibit muscarinic receptor in rat cerebral cortex using [3H]oxotremorine-M (OXO-M); Range is 120-220
[3] = target: Muscarinic acetylcholine receptor; test: Compound was tested for its ability to inhibit muscarinic receptor in rat cerebral cortex using [3H]oxotremorine-M (OXO-M); Range is 48-100
[4] = target: Muscarinic acetylcholine receptor; test: Compound was tested for its ability to inhibit muscarinic receptor in rat cerebral cortex using [3H]quinuclidinyl benzilate (QNB); Range is 530-1100
[5] = target: Muscarinic acetylcholine receptor; test: Compound was tested for its ability to inhibit muscarinic receptor in rat cerebral cortex using [3H]oxotremorine-M (OXO-M); Range is 28-58
[6] = target: Muscarinic acetylcholine receptor; test: Compound was tested for its ability to inhibit muscarinic receptor in rat cerebral cortex using [3H]quinuclidinyl benzilate (QNB);
[7] = target: Muscarinic acetylcholine receptor; test: Compound was tested for its ability to inhibit muscarinic receptor in rat cerebral cortex using [3H]oxotremorine-M (OXO-M); Range is 240-290
[8] = target: Muscarinic acetylcholine receptor; test: Compound was tested for its ability to inhibit muscarinic receptor in rat cerebral cortex using [3H]oxotremorine-M (OXO-M); Range is 21-36
[9] = target: Muscarinic acetylcholine receptor; test: Compound was tested for its ability to inhibit muscarinic receptor in rat cerebral cortex using [3H]quinuclidinyl benzilate (QNB); Range is 3400-4200
[10] = target: Muscarinic acetylcholine receptor; test: Compound was tested for its ability to inhibit muscarinic receptor in rat cerebral cortex using [3H]quinuclidinyl benzilate (QNB); Range is 730-1300
[11] = target: Muscarinic acetylcholine receptor; test: Compound was tested for its ability to inhibit muscarinic receptor in rat cerebral cortex using [3H]oxotremorine-M (OXO-M); Range is 62-70
[12] = target: Muscarinic acetylcholine receptor; test: Compound was tested for its ability to inhibit muscarinic receptor in rat cerebral cortex using [3H]quinuclidinyl benzilate (QNB); Range is […]
[13] = target: Muscarinic acetylcholine receptor; test: Compound was tested for its ability to inhibit muscarinic receptor in rat cerebral cortex using [3H]oxotremorine-M (OXO-M); Range is 18-21
[14] = target: Muscarinic acetylcholine receptor; test: Compound was tested for its ability to inhibit muscarinic receptor in rat cerebral cortex using [3H]quinuclidinyl benzilate (QNB); Range is 330-360
[15] = target: Muscarinic acetylcholine receptor; test: Compound was tested for its ability to inhibit muscarinic receptor in rat cerebral cortex using [3H]quinuclidinyl benzilate (QNB); Range is 9700-23000
[16] = target: Muscarinic acetylcholine receptor; test: Compound was tested for its ability to inhibit muscarinic receptor in rat cerebral cortex using [3H]oxotremorine-M (OXO-M); Range is 65-260

IC50 [1]: 4500 nM
IC50 [2]: 150 nM
SMILES: CO/N=C(/C#N)C1=CCCN(C)C1

SMILES: CO/N=C(/Cl)C1=CC2CCN(C1)C2 (configuration not stated)
IC50 [3]: 69 nM
IC50 [4]: 770 nM

IC50 [5]: 39 nM
SMILES: CO/N=C(/F)C1=CCCN(C)C1

IC50 [6]: 2800 nM
IC50 [7]: 260 nM
SMILES: CO/N=C(/Cl)C1=CCCN(C)C1

SMILES: COC(=O)C1=CC2CCN(C1)C2 (configuration not stated)
IC50 [8]: 27 nM
IC50 [9]: 3800 nM

SMILES: CO/N=C\C1=CC2CCN(C1)C2 (configuration not stated)
IC50 [10]: 960 nM
IC50 [11]: 64 nM

SMILES: CO/N=C(/F)C1=CC2CCN(C1)C2 (configuration not stated)
IC50 [5]: 26 nM
IC50 [12]: 630 nM

SMILES: CO/N=C(/C#N)C1=CC2CCN(C1)C2 (configuration not stated)
IC50 [13]: 20 nM
IC50 [14]: 350 nM

IC50 [15]: 14000 nM
IC50 [16]: 110 nM
SMILES: CO/N=C\C1=CCCN(C)C1
